Values quoted from earlier work, collected in patent publication US20200038317A1, “EXTENDED RELEASE, ABUSE DETERRENT PHARMACEUTICAL COMPOSITIONS” (SpecGX LLC, priority 2012, published 2020).

Settings: at 25° C.

Q: With `O=C(O)CC(O)(CC(=O)O)C(=O)O` [citric acid] as the compound, how does the “relative humidity at which the plasticizer deliquesces” value read?
A: about 75 % relative humidity
